Assays:
[1] = target: T1, butyrylcholinesterase (Rattus norvegicus, UniProt Q9JKC1); test: inhibition of butyrylcholinesterase (rat serum); format: biochemical; details: rat serum enzyme; final concentration 4×10−5 mol/L
T1 construct: Butyrylcholinesterase: rat serum; from tissue; host or cells: rat serum
Experimental: (§1) Sample processing: All samples were formulated as 10-2 mol/L solution by using 100% DMSO. 10-2 mol/L solution was used in microdetermination. 1 μL was taken to use in single tube experiment.
(§2) Solvent control: 0.4% DMSO was used in microdetermination. The inhibition ratio of the sample was obtained wherein the effect of solvent was deducted.
Butyrylcholinesterase: rat serum

[2] = test system: KM mice; test: acute toxicities of compounds on mice; format: in vivo; details: 100 mg/kg oral
Experimental: Sample processing: When getting samples, they were undissolved. […] The samples were suspensions. Experimental animals: KM mice, 22-29 g, half male and half female.
Experimental method: Mice were randomly divided into groups. 100 mg/kg of test compounds DC19 and DC20 were administered orally, respectively.

[3] = target: T2, acetylcholinesterase (Rattus norvegicus, UniProt P37136); test: biochemical; format: biochemical; details: rat cortex enzyme
T2 construct: Acetylcholinesterase: rat cortex; from tissue; host or cells: rat cortex
T2 sequence (P37136 32-614): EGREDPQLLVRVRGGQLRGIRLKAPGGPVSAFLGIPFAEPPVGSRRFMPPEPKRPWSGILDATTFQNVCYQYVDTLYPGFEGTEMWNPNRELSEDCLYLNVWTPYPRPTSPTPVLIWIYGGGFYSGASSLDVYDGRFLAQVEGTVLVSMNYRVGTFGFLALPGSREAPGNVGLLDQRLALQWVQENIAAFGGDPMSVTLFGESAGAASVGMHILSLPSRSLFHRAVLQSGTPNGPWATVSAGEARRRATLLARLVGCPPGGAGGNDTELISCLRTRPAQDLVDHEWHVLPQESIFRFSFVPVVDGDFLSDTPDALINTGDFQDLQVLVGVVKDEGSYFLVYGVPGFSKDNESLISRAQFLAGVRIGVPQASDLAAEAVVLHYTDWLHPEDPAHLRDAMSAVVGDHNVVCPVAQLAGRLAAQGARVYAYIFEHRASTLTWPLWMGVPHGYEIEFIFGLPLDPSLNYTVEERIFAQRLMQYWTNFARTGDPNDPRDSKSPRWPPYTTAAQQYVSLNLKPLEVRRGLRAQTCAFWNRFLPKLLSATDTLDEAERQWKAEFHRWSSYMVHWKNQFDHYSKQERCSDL
Experimental: as §1, §2
Acetylcholinesterase: rat cortex

T1 sequence (Q9JKC1 24-597): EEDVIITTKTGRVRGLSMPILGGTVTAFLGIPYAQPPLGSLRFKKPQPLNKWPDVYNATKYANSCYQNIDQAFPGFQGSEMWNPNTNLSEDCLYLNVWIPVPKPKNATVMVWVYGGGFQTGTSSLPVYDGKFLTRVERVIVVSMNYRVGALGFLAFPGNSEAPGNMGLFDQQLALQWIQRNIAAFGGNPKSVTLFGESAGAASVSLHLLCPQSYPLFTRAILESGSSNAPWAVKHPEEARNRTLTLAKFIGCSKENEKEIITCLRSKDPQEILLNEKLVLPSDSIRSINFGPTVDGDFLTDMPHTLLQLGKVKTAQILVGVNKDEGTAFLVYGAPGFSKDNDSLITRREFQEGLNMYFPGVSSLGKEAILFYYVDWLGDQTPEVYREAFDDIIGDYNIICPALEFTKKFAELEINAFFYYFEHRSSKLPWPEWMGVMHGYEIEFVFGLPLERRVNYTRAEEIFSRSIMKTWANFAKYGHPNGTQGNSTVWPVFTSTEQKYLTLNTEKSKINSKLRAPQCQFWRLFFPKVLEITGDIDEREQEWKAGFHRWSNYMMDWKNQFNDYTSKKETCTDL

COc1cc2c(cc1OC)C(=O)C(CC1(F)CCN(Cc3ccccc3)CC1)C2 (stereo not drawn) [DC19, 2-((l-benzyl-4-fluoropiperidin-4-yl)methyl)-5,6-dimethoxy-2,3-dihydro-1H-inden-1-one]
butyrylcholinesterase inhibitory activity inhibition ratio (%) [1]: 71.58% | response symptoms ([2]; female KM mouse): 30 min squint | time of death after administration ([2]; male KM mouse): 3 h after administration, death | acetylcholinesterase inhibitory activity inhibition ratio (%) ([3]; final concentration 4×10−5 mol/L): 82.44% | IC50 ([3]; read-out: acetylcholinesterase inhibitory activity IC50 (nmol)): 960 pM

From patent publication US20150284331A1 (priority 2012, published 2015)
